In patent publication US20240116973A1, “MODIFIED OLIGONUCLEOTIDES” (ALNYLAM PHARMACEUTICALS, INC., priority 2021, published 2024):

Columns and labels:
[1] = test system: adenosine deaminase; test: Adenosine deaminase assay in human liver S9 fractions; type: in vitro ADME; settings: 1 μM nucleoside, 1 mg/mL human liver S9, pH 7.4, with/without 1 mM NADPH, up to 2 hours, LC-MS
From the text: In the adenosine deaminase assays, 2′-fluoroadenosie was used as a positive control for the deaminase activity: […]

[2] = target: T1, human mitochondrial RNA polymerase POLRMT (Homo sapiens, UniProt O00411); test: POLRMT primer extension (polymerase incorporation) assay; type: biochemical; settings: single NTP 100 μM or 1 mM, 37° C., 30 min, IEX-HPLC fluorescence
T1 construct: purchased Indigo Biosciences MV100-40
From the text: Purified exonuclease activity-deficient human mitochondrial DNA polymerase POLG was obtained from the lab of Prof. William Copeland (National Institute of Environmental Health Science, Durham, NC, USA). Human mitochondrial POLRMT was purchased from Indigo Biosciences (Cat #MV100-40). Atto-425-labelled DNA and RNA primers were synthesized in house; DNA templates were obtained from IDT.
The assays are designed for single NT addition on appropriate template/primer sets: • Atto-425 labeled primers allow for high sensitivity fluorescence detection with very low reaction volumes • Analytical IEX-HPLC with fluorescence detection for optimal resolution of primer-extended products—especially important in competition mixtures • Assays can be applied for the assessment of incorporation efficiency of novel chemistries.
Reaction conditions for the POLG incorporation assays were as follows: 100 nM DNA template, 100 nM 5′-Atto-425-labelled DNA primer, 40 units POLG, 100 μM or 1 mM NTP substrate in 20 mM Tris-HCl, pH 8.0, 2 mM β-mercaptoethanol, 0.1 mg/mL bovine serum albumin, 10 mM MgCl2. Reactions were incubated at 37° C. for 30 min. Reactions were quenched by heating the reaction mixture to 85° C. for 5 min. The reaction mixtures were diluted with water to a final primer concentration of approximately 2.5 nM and analysed by IEX-HPLC with an attached fluorescence detector (excitation wavelength: 436 nm, emission wavelength: 485 nm) and a Dionex BioLCDNAPac PA200 4×250 mm (8 μm particle size) column. […] The reaction mixtures were diluted with water to a final primer concentration of approximately 2.5 nM and analysed by IEX-HPLC as described above, except that the gradient was 35% to 40% buffer B in 16 min.
Recognition of 2′F—N6MeA NTPs by POLRMT and PolGamma: Incorporation of 2′F—N6MeA, RNA, and 2′-F-RNA NTP monomers were evaluated in a previously reported in vitro primer extension assays catalyzed by the human mitochondrial RNA polymerase POLRMT and human mitochondrial DNA polymerase PolGamma. […]

[3] = target: T2, human mitochondrial DNA polymerase POLG (Homo sapiens, UniProt P54098, D198A/E200A); test: POLG (Pol-γ) primer extension (polymerase incorporation) assay; type: biochemical; settings: single NTP 100 μM or 1 mM, 37° C., 30 min, IEX-HPLC fluorescence
T2 construct: lab of Prof; William Copeland (National Institute of Environmental Health Science, Durham, NC, USA)
T2 sequence (P54098 26-1239 D198A/E200A limits assumed): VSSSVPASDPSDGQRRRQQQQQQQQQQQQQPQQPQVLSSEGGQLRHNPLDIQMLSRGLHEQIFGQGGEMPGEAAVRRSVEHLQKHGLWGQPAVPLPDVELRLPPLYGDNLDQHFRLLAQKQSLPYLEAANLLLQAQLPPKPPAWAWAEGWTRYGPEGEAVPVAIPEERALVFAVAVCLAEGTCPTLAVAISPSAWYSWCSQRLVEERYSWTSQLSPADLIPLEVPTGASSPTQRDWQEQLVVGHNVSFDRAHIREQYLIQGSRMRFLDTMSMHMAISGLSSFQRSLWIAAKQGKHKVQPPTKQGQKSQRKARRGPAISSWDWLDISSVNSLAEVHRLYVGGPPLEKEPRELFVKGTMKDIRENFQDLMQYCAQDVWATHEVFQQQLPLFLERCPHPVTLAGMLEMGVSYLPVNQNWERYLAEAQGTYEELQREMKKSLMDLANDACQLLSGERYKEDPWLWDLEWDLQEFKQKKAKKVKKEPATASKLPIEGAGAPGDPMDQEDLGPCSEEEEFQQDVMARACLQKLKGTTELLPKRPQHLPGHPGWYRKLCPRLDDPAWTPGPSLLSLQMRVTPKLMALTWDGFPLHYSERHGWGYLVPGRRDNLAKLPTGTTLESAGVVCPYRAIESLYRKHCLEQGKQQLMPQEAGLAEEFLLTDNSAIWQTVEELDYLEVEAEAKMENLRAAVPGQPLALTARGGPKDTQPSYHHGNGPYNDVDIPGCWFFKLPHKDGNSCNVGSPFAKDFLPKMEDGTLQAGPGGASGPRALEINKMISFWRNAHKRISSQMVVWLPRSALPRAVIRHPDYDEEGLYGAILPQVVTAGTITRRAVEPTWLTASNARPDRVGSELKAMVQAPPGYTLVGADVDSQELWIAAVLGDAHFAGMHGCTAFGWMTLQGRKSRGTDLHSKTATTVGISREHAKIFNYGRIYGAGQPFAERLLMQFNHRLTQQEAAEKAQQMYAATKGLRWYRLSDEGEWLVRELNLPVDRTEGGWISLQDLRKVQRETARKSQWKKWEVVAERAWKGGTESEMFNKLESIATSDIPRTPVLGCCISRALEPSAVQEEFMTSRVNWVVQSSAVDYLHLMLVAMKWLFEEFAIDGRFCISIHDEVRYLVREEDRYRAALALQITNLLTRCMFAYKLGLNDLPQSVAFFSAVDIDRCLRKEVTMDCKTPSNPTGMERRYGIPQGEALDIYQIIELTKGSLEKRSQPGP
Procedure: Purified exonuclease activity-deficient human mitochondrial DNA polymerase POLG was obtained from the lab of Prof. William Copeland (National Institute of Environmental Health Science, Durham, NC, USA). Human mitochondrial POLRMT was purchased from Indigo Biosciences (Cat #MV100-40).
Buffer A was 20 mM sodium phosphate, 15% ACN, pH 11; and buffer B was 20 mM sodium phosphate, 15% ACN, 1 M NaBr, pH 11. […] Briefly, a 5′-fluorescently labeled primer and template were incubated […], and the primer extension reaction was monitored via fluorescence detection ion-exchange high-performance liquid chromatography.

T1 sequence (O00411 42-1230): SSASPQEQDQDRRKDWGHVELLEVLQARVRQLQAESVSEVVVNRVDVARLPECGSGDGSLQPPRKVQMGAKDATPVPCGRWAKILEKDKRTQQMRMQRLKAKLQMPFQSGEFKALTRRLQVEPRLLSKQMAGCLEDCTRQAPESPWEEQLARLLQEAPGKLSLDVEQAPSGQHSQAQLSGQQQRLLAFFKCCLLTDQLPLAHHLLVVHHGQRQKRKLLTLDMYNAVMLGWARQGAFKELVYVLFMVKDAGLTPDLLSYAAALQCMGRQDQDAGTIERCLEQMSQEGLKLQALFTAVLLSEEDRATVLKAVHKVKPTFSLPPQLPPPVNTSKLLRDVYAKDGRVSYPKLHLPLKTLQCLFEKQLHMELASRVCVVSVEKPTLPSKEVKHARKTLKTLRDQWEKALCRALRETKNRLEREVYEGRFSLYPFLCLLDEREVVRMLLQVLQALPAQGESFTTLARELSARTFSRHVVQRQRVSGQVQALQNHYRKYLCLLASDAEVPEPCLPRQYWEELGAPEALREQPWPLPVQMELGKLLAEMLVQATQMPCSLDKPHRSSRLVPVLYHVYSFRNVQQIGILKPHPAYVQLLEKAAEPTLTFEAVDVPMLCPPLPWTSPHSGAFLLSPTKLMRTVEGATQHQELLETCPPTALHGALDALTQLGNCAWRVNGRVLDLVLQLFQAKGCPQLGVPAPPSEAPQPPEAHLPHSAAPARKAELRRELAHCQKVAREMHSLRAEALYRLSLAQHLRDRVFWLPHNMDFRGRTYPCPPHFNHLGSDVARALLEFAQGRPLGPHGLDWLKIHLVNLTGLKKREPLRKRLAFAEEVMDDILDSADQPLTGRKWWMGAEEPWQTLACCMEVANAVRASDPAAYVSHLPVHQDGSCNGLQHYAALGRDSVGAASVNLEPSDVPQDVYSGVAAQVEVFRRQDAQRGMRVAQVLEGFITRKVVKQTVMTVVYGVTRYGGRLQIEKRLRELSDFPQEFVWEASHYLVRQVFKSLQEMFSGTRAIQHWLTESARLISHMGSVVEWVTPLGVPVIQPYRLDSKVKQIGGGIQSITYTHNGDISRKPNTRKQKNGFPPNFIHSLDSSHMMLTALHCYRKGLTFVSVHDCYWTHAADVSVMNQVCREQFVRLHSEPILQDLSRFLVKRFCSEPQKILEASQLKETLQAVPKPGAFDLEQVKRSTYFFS

| Deaminated metabolite (adenine to inosine conversion) [1] | SMILES | PolRMT Incorporation [2] | PolRMT Incorporation ([2]; listed as 2′F—N6MeA NTP) | Pol-γ Incorporation [3] | Pol-γ Incorporation ([3]; listed as 2′F—N6MeA NTP) |
| --- | --- | --- | --- | --- | --- |
| formation of deaminated metabolite | Nc1ncnc2c1ncn2[C@@H]1O[C@H](CO)[C@H](O)C1F (stereo partly shown) [2′-fluoro-adenosine, reference compound] |  |  |  |  |
|  | CNc1ncnc2c1ncn2[C@@H]1O[C@H](COP(=O)(O)OP(=O)(O)OP(=O)(O)O)[C@@H](O)[C@H]1F [2′Fluoro-N6Methyl-Atp triphosphate, ((2R,3R,4R,5R)-4-fluoro-3-hydroxy-5-(6-(methylamino)-9H-purin-9-yl)tetrahydrofuran-2-yl)methyl triphosphate] | Yes | good substrate | Yes | good substrate |
| no deaminated metabolites were observed | COC1C(O)[C@@H](CO)O[C@H]1n1cnc2c(NC(C)C)ncnc21 (stereo partly drawn) [Compound 45, (2R,5R)-2-(hydroxymethyl)-5-[6-(isopropylamino)purin-9-yl]-4-methoxy-tetrahydrofuran-3-ol] |  |  |  |  |
|  | Nc1ncnc2c1ncn2[C@@H]1O[C@H](COP(=O)(O)OP(=O)(O)OP(=O)(O)O)[C@@H](O)[C@H]1O [rATP, reference compound] | efficiently incorporated |  |  |  |
